What is called pIC50 is −log10 of the IC50, conventionally taken in molar units. A high value points to a low IC50. For orientation: Papp A→B means how fast a substance crosses the layer from the apical side. A high value points to fast passage. As a reminder, the Papp B→A is the apparent permeability from the basolateral to the apical side of a cell layer.

pIC50: −log10 of the molar value.

Data set [1] deals with T1, ENaC (Epithelial Sodium Channel), Mouse kidney M-1 cells (Mus musculus, UniProt Q61180+Q9WU38+Q9WU39).
T1 construct: Mouse kidney M-1 cells were cultivated in DMEM containing 5% FCS and 5 μM dexamethasone; endogenous in cells; host or cells: Mouse kidney M-1 cells (polarised on transwell filters, dexamethasone-treated)
T1 sequence (Q61180 1-699): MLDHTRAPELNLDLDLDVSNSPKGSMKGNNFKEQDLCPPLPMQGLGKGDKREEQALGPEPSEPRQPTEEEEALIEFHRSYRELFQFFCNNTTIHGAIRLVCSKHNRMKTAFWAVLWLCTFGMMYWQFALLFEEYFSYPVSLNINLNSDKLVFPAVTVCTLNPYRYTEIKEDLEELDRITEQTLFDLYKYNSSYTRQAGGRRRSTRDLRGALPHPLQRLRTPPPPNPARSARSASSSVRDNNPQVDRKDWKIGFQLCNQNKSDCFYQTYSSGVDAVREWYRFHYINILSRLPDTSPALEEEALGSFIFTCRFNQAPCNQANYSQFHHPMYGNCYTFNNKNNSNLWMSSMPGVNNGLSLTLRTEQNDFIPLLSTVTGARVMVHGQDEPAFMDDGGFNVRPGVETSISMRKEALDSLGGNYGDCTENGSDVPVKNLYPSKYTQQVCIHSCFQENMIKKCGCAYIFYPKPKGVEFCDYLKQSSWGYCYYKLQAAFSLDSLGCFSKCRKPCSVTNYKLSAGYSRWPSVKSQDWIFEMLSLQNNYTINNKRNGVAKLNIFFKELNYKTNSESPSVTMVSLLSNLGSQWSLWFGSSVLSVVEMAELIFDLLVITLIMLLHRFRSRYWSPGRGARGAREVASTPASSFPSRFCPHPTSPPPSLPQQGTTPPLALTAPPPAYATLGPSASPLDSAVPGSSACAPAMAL
T1 sequence (Q9WU38 1-638): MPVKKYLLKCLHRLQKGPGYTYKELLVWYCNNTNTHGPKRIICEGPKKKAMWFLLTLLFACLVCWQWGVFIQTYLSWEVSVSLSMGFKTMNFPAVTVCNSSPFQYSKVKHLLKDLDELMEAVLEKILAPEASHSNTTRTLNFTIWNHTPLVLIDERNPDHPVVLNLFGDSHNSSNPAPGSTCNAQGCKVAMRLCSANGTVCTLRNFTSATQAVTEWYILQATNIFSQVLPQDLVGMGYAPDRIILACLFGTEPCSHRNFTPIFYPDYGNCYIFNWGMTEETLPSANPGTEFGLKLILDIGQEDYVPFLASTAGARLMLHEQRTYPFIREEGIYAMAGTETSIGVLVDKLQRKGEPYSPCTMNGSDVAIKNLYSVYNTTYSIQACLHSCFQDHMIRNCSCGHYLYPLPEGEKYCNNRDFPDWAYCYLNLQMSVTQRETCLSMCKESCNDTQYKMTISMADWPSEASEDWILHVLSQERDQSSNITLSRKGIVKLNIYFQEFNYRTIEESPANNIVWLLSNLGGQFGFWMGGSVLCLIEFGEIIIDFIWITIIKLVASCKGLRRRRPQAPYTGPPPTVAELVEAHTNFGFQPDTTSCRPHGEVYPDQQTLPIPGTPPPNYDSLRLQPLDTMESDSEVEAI
T1 sequence (Q9WU39 1-655): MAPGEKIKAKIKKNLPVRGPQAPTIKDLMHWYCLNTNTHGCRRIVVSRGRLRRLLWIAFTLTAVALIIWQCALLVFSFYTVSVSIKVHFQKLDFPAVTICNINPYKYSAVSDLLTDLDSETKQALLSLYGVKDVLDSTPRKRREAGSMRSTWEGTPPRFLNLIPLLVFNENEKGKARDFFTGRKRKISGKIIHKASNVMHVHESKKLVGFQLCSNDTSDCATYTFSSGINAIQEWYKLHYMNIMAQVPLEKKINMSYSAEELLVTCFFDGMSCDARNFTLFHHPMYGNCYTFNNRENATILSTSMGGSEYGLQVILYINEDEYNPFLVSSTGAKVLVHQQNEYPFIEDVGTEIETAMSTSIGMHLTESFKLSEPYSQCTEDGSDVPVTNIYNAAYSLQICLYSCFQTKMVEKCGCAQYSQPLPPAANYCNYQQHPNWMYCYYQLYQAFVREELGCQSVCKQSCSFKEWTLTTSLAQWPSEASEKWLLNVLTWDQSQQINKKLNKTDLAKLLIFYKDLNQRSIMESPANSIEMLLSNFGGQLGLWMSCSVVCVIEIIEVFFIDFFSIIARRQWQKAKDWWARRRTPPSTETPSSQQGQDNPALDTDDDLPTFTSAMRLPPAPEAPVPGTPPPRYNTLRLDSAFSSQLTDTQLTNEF
The data set is described as follows: Ussing Chamber assay: inhibition of amiloride sensitive short circuit current in M-1 cells. It is filed as cell-based. As to conditions: apical application, 37° C. The method, then:
Ussing Chamber: Mouse kidney M-1 cells were cultivated in DMEM containing 5% FCS and 5 μM dexamethasone for 10 to 12 days on polyester transwell filters. Filters were inserted into a teflon-coated well-plate which fit into the ussing chamber system. Prior to measurement the medium of M-1 cells was replaced with Caco-2 transport buffer (Invitrogen, Germany). During measurements, the Ussing chamber temperature was kept at 37° C. Short circuit currents (I_sc) were measured in the voltage-clamp mode with the software package Lab View for data acquisition and analysis. The transepithelial electrical resistance (TEER) was determined by the application of voltage steps of ±5 mV every 5 sec. Compounds were administered at a final concentration of 3 μM or at increasing concentrations (1-3-10 μM) to the apical solution. At the end of each experiment the amiloride sensitive I_SC was measured by adding 3 μM amiloride to the apical compartment. Results are expressed as inhibition in percent of the amiloride effect or as IC50.

Data set [2] is described as follows: Permeability in CALU-3 cells. It is filed as in vitro ADME. Conditions: human, CALU-3 monolayers, pH 7.4, 37° C., 10 μM compound; for Papp A→B at 90 min, 10 μM: apical-to-basal; for Papp B→A at 90 min, 10 μM: basal-to-apical. The method, then:
Permeability in CALU-3 Cells:
Permeability measurements across polarized, confluent CALU-3 cell monolayers grown on permeable filter supports are used to provide information on the potential of a compound to pass the lung epithelium.
CALU-3 cells (1-2×10^5 cells/l cm^2 area) are seeded on filter inserts (Costar transwell polycarbonate filters, 0.4 μm pore size) and cultured (for 10-12 days DMEM) until tight monolayers are formed. Compounds of interest are dissolved in appropriate solvent (DMSO, 10 mM stock solution). […] The transport solution (TL) is applied to the apical or basolateral donor side for measuring A-B or B-A permeability (3 filter replicates), respectively. The receiver side contains the same buffer as the donor side. After 30 min of accommodation, samples are collected at the start t0=0 min and at the end of the experiment tn=90 min from the donor and at 0, 30, 60, and 90 min also from the receiver chamber. Volume removed is […] by HTP-4 buffer. The compound concentration in the samples is measured by HPLC-MS/MS or scintillation counting. The permeability coefficient (Papp) and efflux ratio are calculated according to: Papp [cm/s]=(concentration receiver [nM]*volume receiver [mL]/time interval [sec])*(1/filter area)*(1/donor concentration [nM]).

For `CCn1c(CNC(=O)c2nc(Cl)c(N)nc2N)[n+](CC(=O)N2CCOCC2)c2ccc(OC)cc21.[Br-]` [Example 3.02], the pIC50 in data set [1] was 8.30. Besides, in data set [2], the Papp A→B at 90 min, 10 μM came out at 0.06 ×10⁻⁶ cm/s and the Papp B→A at 90 min, 10 μM worked out at 0.2 ×10⁻⁶ cm/s.

For `CCn1c(CNC(=O)c2nc(Cl)c(N)nc2N)[n+](CC(=O)N2CCN(C(=O)OC(C)(C)C)CC2)c2ccc(OC)cc21.[Br-]` [Example 3.08], in data set [1], the pIC50 was 8.40. Also, in data set [2], the Papp A→B at 90 min, 10 μM worked out at 0.1 ×10⁻⁶ cm/s and the Papp B→A at 90 min, 10 μM worked out at 0.08 ×10⁻⁶ cm/s.

On to `CC[n+]1c(CNC(=O)c2nc(Cl)c(N)nc2N)n(CCCc2ccc(OCP(C)(C)=O)cc2)c2cc(OC)ccc21.O=C([O-])C(F)(F)F` [Example 1.03], for which the pIC50 in data set [1] is 8.10. In data set [2], the Papp A→B at 90 min, 10 μM was determined as 0.1 ×10⁻⁶ cm/s and the apparent permeability from basolateral to apical (Papp B→A) at 90 min, 10 μM stood at 0.07 ×10⁻⁶ cm/s.

The record behind these values is patent US9981954B2, “2-(pyrazin-2-ylcarbonylaminomethyl) benzimidazolium compounds as epithelial sodium channel inhibitors” (Boehringer Ingelheim International GmbH, priority 2015, dated 2018).
